A value given as a limit tells only on which side of the number the result lay.

Assay [1] has as its system Glomerella lagenarium (Colletotrichum lagenarium). The assay can be described thus: Glomerella lagenarium (Colletotrichum lagenarium) / liquid culture (anthracnose). It counts as cell-based. Particulars: Colletotrichum orbiculare, liquid culture (PDB), growth inhibition photometrically 3-4 days after application, compared to untreated control. Here is the method: Example B3. Glomerella lagenarium (Colletotrichum lagenarium)/Liquid Culture (Anthracnose) Conidia of the fungus from cryogenic storage are directly mixed into nutrient broth (PDB potato dextrose broth). After placing a (DMSO) solution of test compound into a microtiter plate (96-well format), the nutrient broth containing the fungal spores is added. The test plates are incubated at 24° C. and the inhibition of growth is measured photometrically 3-4 days after application. […] […]-25, and P-26.

In assay [2] the test system is Mycosphaerella graminicola (Septoria tritici). The assay can be described thus: Mycosphaerella graminicola (Septoria tritici) / liquid culture (Septoria blotch). It is filed as cell-based. To be noted: Zymoseptoria tritici, liquid culture (PDB), growth inhibition photometrically 4-5 days after application, compared to untreated control. The protocol:
Example B11. Mycosphaerella graminicola (Septoria tritici)/Liquid Culture (Septoria Blotch) Conidia of the fungus from cryogenic storage are directly mixed into nutrient broth (PDB potato dextrose broth). After placing a (DMSO) solution of test compound into a microtiter plate (96-well format), the nutrient broth containing the fungal spores is added. The test plates are incubated at 24° C. and the inhibition of growth is determined photometrically 4-5 days after application.

The subject of assay [3] is Monographella nivalis (Microdochium nivale). The assay can be described thus: Monographella nivalis (Microdochium nivale) / liquid culture (foot rot cereals). It counts as cell-based. To be noted: liquid culture (PDB), growth inhibition photometrically 4-5 days after application, compared to untreated control. Here is the method: Example B6. Monographella nivalis (Microdochium nivale)/Liquid Culture (Foot Rot Cereals) Conidia of the fungus from cryogenic storage are directly mixed into nutrient broth (PDB potato dextrose broth). After placing a (DMSO) solution of test compound into a microtiter plate (96-well format), the nutrient broth containing the fungal spores is added. The test plates are incubated at 24° C. and the inhibition of growth is determined photometrically 4-5 days after application. […] […]-25, and P-26.

Assay [4] concerns Magnaporthe grisea (Pyricularia oryzae). The assay can be described thus: whole plant or invertebrate. It counts as in vivo. Particulars: foliar, read-out: control of Magnaporthe grisea.

Broadly, the inhibition of growth is the change of the read-out against control, counted positive when it falls. Low values mean a weak effect, high ones a strong effect. Regarding `CC1Oc2cc(Nc3ccccc3)nc(C(=O)NCC(C)(C)C)c2O1` (stereo not shown) [Compound P-1, 6-anilino-N-(2,2-dimethylpropyl)-2-methyl-[1,3]dioxolo[4,5-c]pyridine-4-carboxamide], the inhibition of growth at 20 ppm in assay [1] is ≥ 80%.

`CC1Oc2cc(Nc3cccc(F)c3)nc(C(=O)NCC(C)(C)C)c2O1` (stereo not shown) [Compound P-2, N-(2,2-dimethylpropyl)-6-(3-fluoroanilino)-2-methyl-[1,3]dioxolo[4,5-c]pyridine-4-carboxamide]: the inhibition of growth at 20 ppm in assay [2] and in assay [1] was ≥ 80% in each case.

Consider `CC1Oc2cc(Nc3cc(F)cc(F)c3)nc(C(=O)NCC(C)(C)C)c2O1` (stereo not shown) [Compound P-3, 6-(3,5-difluoroanilino)-N-(2,2-dimethylpropyl)-2-methyl-[1,3]dioxolo[4,5-c]pyridine-4-carboxamide], for which, in assay [1], the inhibition of growth at 20 ppm was ≥ 80%.

Turning to `CC1(C)CCC1NC(=O)c1nc(Nc2cc(F)cc(F)c2)cc2c1OC(F)(F)O2` (stereo not shown) [Compound P-6, 6-(3,5-difluoroanilino)-N-(2,2-dimethylcyclobutyl)-2,2-difluoro-[1,3]dioxolo[4,5-c]pyridine-4-carboxamide], the inhibition of growth at 20 ppm in assay [1] and in assay [3] was ≥ 80% in each case.

Regarding `CC1(C)CCC1NC(=O)c1nc(N(C#N)c2cc(F)cc(F)c2)cc2c1OCO2` (stereo not shown) [Compound P-7, 6-(N-cyano-3,5-difluoro-anilino)-N-(2,2-dimethylcyclobutyl)-[1,3]dioxolo[4,5-c]pyridine-4-carboxamide], the inhibition of growth at 20 ppm in assay [2], in assay [1] and in assay [3] was ≥ 80% throughout.

For the molecule `CC1(C)CCC1NC(=O)c1nc(Nc2cc(F)nc(F)c2)cc2c1OCO2` (stereo not shown) [Compound P-10, 6-[(2,6-difluoro-4-pyridyl)amino]-N-(2,2-dimethylcyclobutyl)-[1,3]dioxolo[4,5-c]pyridine-4-carboxamide], the inhibition of growth at 20 ppm in assay [2], in assay [1] and in assay [3] was ≥ 80% in each case.

`CC(C)(C)CNC(=O)c1nc(Nc2cncc(F)c2)cc2c1OCO2` [Compound P-14, N-(2,2-dimethylpropyl)-6-[(5-fluoro-3-pyridyl)amino]-[1,3]dioxolo[4,5-c]pyridine-4-carboxamide]: the inhibition of growth at 20 ppm in assay [2], in assay [1] and in assay [3] was ≥ 80% throughout. For the same molecule, the pest or weed control at 200 ppm in assay [4] was ≥ 80%.

Take `CC(C)(C)CC(C)(C)NC(=O)c1nc(Nc2cc(F)cc(F)c2)cc2c1OCO2` [Compound P-17, 6-(3,5-difluoroanilino)-N-(1,1,3,3-tetramethylbutyl)-[1,3]dioxolo[4,5-c]pyridine-4-carboxamide]: the inhibition of growth at 20 ppm in assay [2] and in assay [3] was ≥ 80% throughout. For the same molecule, the pest or weed control at 200 ppm in assay [4] was ≥ 80%.

With `CC(C)(NC(=O)c1nc(Nc2cc(F)cc(F)c2)cc2c1OCO2)c1ccccc1` [Compound P-20, 6-(3,5-difluoroanilino)-N-(1-methyl-1-phenyl-ethyl)-[1,3]dioxolo[4,5-c]pyridine-4-carboxamide], the inhibition of growth at 20 ppm in assay [2], in assay [1] and in assay [3] was ≥ 80% in each case.

The values are drawn from patent publication US12497406B2, “Microbiocidal derivatives” (SYNGENTA CROP PROTECTION AG, priority 2019, dated 2025).
